According to patent publication US20210269859A1, “PATHOGEN AND ANT[…]” (priority 2014, published 2021):
Read-outs that look alike come from different tables or passages of the source.

Key:
Assay type in all cases: cell-based
[1] = test system: kanamycin resistant E. coli K12 MG1655 strain; conditions: 100 μl
Method: (§1) A single E. coli bacterial colony (E. coli K12 MG1655) known to be resistant to kanamycin and a single E. coli bacterial colony (E. coli K12 MG1655) known to be resistant to carbenicillin were separately cultured in LB media for 12-15 hrs until the bacterial cells were in mid-log phase (about 10^8 cells/nil). The culture was then serial diluted to 5×10^2, 5×10^3, 5×10^4, and 5×10^5 cells in LB media containing either 50 μg/ml kanamycin or 100 μg/ml carbenicillin. Resazurin was added to each dilution at a final concentration of 20, 40, or 80 μM in a total reaction volume of 100 μl. Each diluted culture was cultured at 37° C. and fluorescence was measured at wavelength 590 nm at 0, 1, 2, 3, 4, 5, and 6 hrs from the start of culture in the presence of the antibiotic.

[2] = test system: kanamycin resistant E. coli K12 MG1655 strain; conditions: 10 μl
Method: as §1
The resazurin reduction method was repeated using the kanamycin resistant strain but in a 10 μl total reaction volume and with final cell concentrations of 5×10^1, 5×10^2, 5×10^3, and 5×10^4 cells per reaction. The same final resazurin concentrations (20, 40, or 80 μM), kanamycin concentration, and carbenicillin concentration were used as above. Fluorescence was measured at wavelength 590 nm at 0, 1, 2, 3, 4, 5, 6, and 7 hrs from the start of culture in the presence of the antibiotic.

[3] = test system: carbenicillin resistant E. coli K12 MG1655 strain; assay: Resazurin reduction method, 100 μl total reaction volume
Method: as §1

[4] = 50 μg/ml kanamycin or 100 μg/ml carbenicillin, 5×10^2 to 5×10^5 cells, resazurin 20, 40 or 80 μM, 37° C., 0-6 hrs
[5] = higher initial cell concentrations (5×10^3, 5×10^4, 5×10^5 cells)
[6] = lower initial cell concentration (5×10^2 cells)

Structure (SMILES) | growth of the strain in the presence of the antibiotic (fluorescence at 590 nm) [1, 4] | growth of the strain in the presence of the antibiotic (fluorescence at 590 nm) ([2]; same kanamycin and carbenicillin concentrations, 5×10^1 to 5×10^4 cells per reaction, resazurin 20, 40 or 80 μM, 0-7 hrs) | growth of the strain in the presence of the antibiotic (fluorescence at 590 nm) [3, 4] | time after initiating the culture at which resistance to the antibiotic could be detected [3, 5] [h] | time after initiating the culture at which resistance to the antibiotic began showing [3, 6] | time after initiating the culture at which resistance to the antibiotic could be detected [1, 5] [h] | time after initiating the culture at which resistance to the antibiotic began showing [1, 6] | time after initiating the culture at which resistance to the antibiotic could be detected ([2]; higher initial cell concentrations (5×10^2, 5×10^3, 5×10^4 cells)) [h] | time after initiating the culture at which resistance to the antibiotic began showing ([2]; lower initial cell concentration (5×10^1 cells))
CC1(C)S[C@@H]2[C@H](NC(=O)C(C(=O)O)c3ccccc3)C(=O)N2[C@H]1C(=O)O (stereo partly drawn) [carbenicillin] | slow or no growth | slow or no growth | growth | 1 to 5 | about 6 hrs |  |  |  | 
NC[C@H]1O[C@H](O[C@H]2[C@H](O)[C@@H](O[C@H]3O[C@H](CO)[C@@H](O)[C@H](N)[C@H]3O)[C@H](N)C[C@@H]2N)[C@H](O)[C@@H](O)[C@@H]1O [kanamycin] |  |  |  |  |  | 1 to 5 | about 6 hrs | 1 to 6 | about 7 hrs
